Common to all, as to assay: NCI anticancer screen, dose series, 48 h
In assay [1] the test system is HCT-15.
In assay [2] the test system is PC-3.
Assay [3] concerns SW-620.
Assay [4] has as its system NCI-H23.
Assay [5] relates to K562.
Assay [6] concerns SNB-75.
Assay [7] concerns SK-OV-3.
Assay [8] relates to HCC 2998.
The subject of assay [9] is COLO 205.
Assay [10] relates to OVCAR-8.
Assay [11] deals with UO-31.
In assay [12] the test system is DU-145.
The subject of assay [13] is ACHN.
In assay [14] the test system is SNB-19.
In assay [15] the test system is NCI-H460.
For assay [16], the system named is NCI/ADR-RES.
Assay [17] deals with T47D.
Assay [18] relates to MCF7.
The subject of assay [19] is HOP-62.
The subject of assay [20] is CCRF-CEM.

SMILES strings stand for the structures.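 Five concentrations, 48 hours, 96-well plates. GI50 marks 50% less growth.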 Activity calls are given as the source filed them. Rule as the data show it: active = GI50 up to about 1.1 µM and inactive = higher. Where a SMILES comes first, the peptide text is derived from it. The star is where a group is joined. Boc = CC(C)(C)OC(=O)*; Bn = c1ccc(C*)cc1

As for `CC1(C)N=C(N)N=C(N)N1c1cccc(CSc2ccccc2)c1`, the GI50 in assay [1] was 50.4 µM; in assay [2], 3.73 µM (inactive); in assay [3], 7.59 µM (inactive); in assay [4] it was 0.619 µM (active); in [5], 0.774 µM (active); in assay [6], 4.42 µM (inactive). The GI50 is 95.3 µM (inactive) in [7]; 73.1 µM (inactive) in [8]; 0.794 µM (active) in assay [9]; 3.16 µM (inactive) in assay [10]; > 100 µM (inactive) in [11]; 0.592 µM (active) in assay [12]. Moreover, the GI50 in assay [13] was 34.4 µM (inactive); in [14], 0.218 µM (active); in assay [15], 0.0404 µM (active); in assay [16], > 100 µM (inactive); in assay [17], 12.9 µM (inactive); in [18], 0.597 µM (active). The GI50 in [19] was 6.4 µM (inactive).

Take `O=C(O)c1ccccc1-c1ccccc1C(=O)Nc1ccc2c(c1)Cc1ccccc1-2`: the GI50 in assay [1] is 20.4 µM; in [2], 41.1 µM (inactive); in [3] it was 31.8 µM (inactive); in assay [4], 18 µM (inactive); in assay [6] it was 68.4 µM (inactive); in [7] it was 59.4 µM (inactive). Also, the GI50 in [8] was 17.8 µM (inactive); in assay [9], 17.2 µM (inactive); in [10] it was 43.6 µM (inactive); in [11] it was 30 µM (inactive); in assay [12], 38.8 µM (inactive); in assay [13], 30.3 µM (inactive). For the same molecule, the GI50 in assay [14] was 36.1 µM (inactive); in [15], 19.2 µM (inactive); in assay [16], 45 µM (inactive); in assay [17], 26.3 µM (inactive); in assay [18] it was 28.1 µM (inactive); in assay [19], 58.6 µM (inactive).

`COC1(OC)CC(CO)(CNc2cc(Cl)nc(N)n2)C1`: the GI50 in assay [1] is above 100 µM; in [20], > 100 µM (inactive); in assay [2] it was > 100 µM (inactive); in assay [3] it was > 100 µM (inactive); in [4] it was > 100 µM (inactive); in assay [5] it was > 100 µM (inactive). Moreover, the GI50 in [7], in assay [8], in [9], in assay [10], in [11] and in [12] was > 100 µM (inactive) throughout. The GI50 in assay [13] is > 100 µM (inactive); in [14] it was > 100 µM (inactive); in assay [15], > 100 µM (inactive); in assay [16], > 100 µM (inactive); in assay [17], 24.9 µM (inactive); in assay [18], > 100 µM (inactive). Also, the GI50 in assay [19] was > 100 µM (inactive).

For the molecule `COc1ccc2c(-c3csc(-c4c[nH]c5ccc(Br)cc45)n3)c[nH]c2c1`, the GI50 in assay [1] is 7.53 µM; in assay [20], 27.7 µM (inactive); in assay [2] it was 10.4 µM (inactive); in assay [3] it was > 100 µM (inactive); in [4], 64.9 µM (inactive); in assay [5] it was 15.2 µM (inactive). The GI50 in [9] is 54.1 µM (inactive); in assay [10], > 100 µM (inactive); in assay [11], > 100 µM (inactive); in assay [12] it was > 100 µM (inactive); in [13], 70 µM (inactive); in assay [14], > 100 µM (inactive). Besides, the GI50 in [15] was 23.2 µM (inactive); in [16], 90.6 µM (inactive); in assay [17], 59.3 µM (inactive); in assay [18], 54.1 µM (inactive); in [19], 62.4 µM (inactive).

Consider `CC(=O)/C=C1/C(=O)C(CC(C)C)=C1CC(C)C`, for which the GI50 in assay [1] is above 100 µM; in assay [20], 53.8 µM (inactive); in [2] it was > 100 µM (inactive); in assay [3] it was > 100 µM (inactive); in assay [4] it was > 100 µM (inactive); in assay [6], > 100 µM (inactive). Besides, the GI50 in [7], in [9], in assay [10], in assay [11], in [12] and in assay [13] was > 100 µM (inactive) each time. The GI50 in [14], in [16], in [17], in assay [18] and in assay [19] was > 100 µM (inactive) each time.

On to `COC(=O)C(CC(C)C)NC(=O)C(C)NC(=O)C(Cc1ccc(OCc2ccccc2)cc1)NC(=O)C(COCc1ccccc1)NC(=O)OC(C)(C)C` (centres undefined) (Boc-S(Bn)Y(Bn)AL-OMe; configuration not given here), for which the GI50 in assay [2], in [3], in assay [4], in assay [5], in [6] and in assay [7] was > 100 µM (inactive) in each case. Moreover, the GI50 in assay [9], in assay [10], in assay [11], in assay [12], in assay [13] and in assay [14] was > 100 µM (inactive) throughout. Besides, the GI50 in [15], in assay [16], in assay [17], in assay [18] and in [19] was > 100 µM (inactive) each time.

For the molecule `Cc1cn(CC2=NCC(O)CN2)c(=O)[nH]c1=O` (centres undefined), the GI50 in [1] is above 100 µM; in assay [20], > 100 µM (inactive); in assay [2], > 100 µM (inactive); in assay [3], > 100 µM (inactive); in assay [4], > 100 µM (inactive); in [5], > 100 µM (inactive). The GI50 in assay [7], in assay [8], in [9], in assay [10], in assay [11] and in assay [12] was > 100 µM (inactive) in each case. Besides, the GI50 in assay [13], in assay [14], in assay [15], in [16], in [17] and in [18] was > 100 µM (inactive) throughout. The GI50 in [19] is > 100 µM (inactive).

In the case of `CC(C)Oc1c(O)c2c3c(oc(=O)n3C=CC2c2ccccc2)c1OC(C)C` (centres undefined), the GI50 was 12.8 µM in assay [1]; 17 µM (inactive) in assay [2]; 32 µM (inactive) in assay [3]; 20.2 µM (inactive) in assay [4]; 21.9 µM (inactive) in assay [6]; > 100 µM (inactive) in [7]. In addition, the GI50 in assay [8] was 19 µM (inactive); in assay [9], 22.1 µM (inactive); in assay [10] it was 31.9 µM (inactive); in assay [11], 14.2 µM (inactive); in [12] it was 34 µM (inactive); in assay [13] it was > 10 µM (inactive). Moreover, the GI50 was 20.3 µM (inactive) in assay [14]; 14.7 µM (inactive) in assay [15]; 27.5 µM (inactive) in assay [16]; 25.9 µM (inactive) in assay [17]; 19.6 µM (inactive) in [18]; 26.7 µM (inactive) in [19].

On to `CCCNC(=O)c1cc(OC)c(OC)cc1NC(=O)C12CC3CC(CC(C3)C1)C2`, for which the GI50 in assay [1] is 17 µM; in [20] it was 28.2 µM (inactive); in assay [2], 17.3 µM (inactive); in assay [3] it was > 100 µM (inactive); in [4], 16.8 µM (inactive); in assay [5], 31.9 µM (inactive). Besides, the GI50 in [9] was 24.3 µM (inactive); in assay [10], 23.7 µM (inactive); in assay [11], 16.6 µM (inactive); in assay [12] it was 21.2 µM (inactive); in [13], 14.5 µM (inactive); in [14], 16.4 µM (inactive). The GI50 in assay [15] is 20.6 µM (inactive); in [16], 19 µM (inactive); in assay [17] it was 17.5 µM (inactive); in assay [18] it was 22.2 µM (inactive); in assay [19] it was 19.7 µM (inactive).

As to `Cn1c(=O)c2c(ncn2CN2CCN(Cn3cnc4c3c(=O)n(C)c(=O)n4C)CC2)n(C)c1=O`, the GI50 was 27.6 µM in assay [1]; 21.9 µM (inactive) in [20]; 53.5 µM (inactive) in assay [2]; 23.2 µM (inactive) in assay [3]; 65.9 µM (inactive) in [4]; 31.7 µM (inactive) in assay [5]. In addition, the GI50 in assay [6] was 74.8 µM (inactive); in [7], > 100 µM (inactive); in [9] it was 39.4 µM (inactive); in assay [10] it was 44.6 µM (inactive); in [11], 46.1 µM (inactive); in assay [12], 45.7 µM (inactive). Also, the GI50 is 27 µM (inactive) in [13]; > 100 µM (inactive) in assay [14]; 19.2 µM (inactive) in [15]; > 100 µM (inactive) in [16]; 30.5 µM (inactive) in [17]; 16.9 µM (inactive) in [18]. In addition, in assay [19], the GI50 was > 100 µM (inactive).

Consider `C=C1c2nc3ccccc3n2C=C(c2ccc(Cl)cc2)N1c1ccc(OCCN2CCCCC2)cc1`, for which the GI50 is above 45 µM in [1]; > 45 µM (inactive) in assay [20]; > 45 µM (inactive) in assay [2]; > 45 µM (inactive) in [3]; > 45 µM (inactive) in assay [4]; > 45 µM (inactive) in assay [5]. Also, the GI50 in assay [7] is > 45 µM (inactive); in assay [8], > 100 µM (inactive); in assay [9], > 45 µM (inactive); in assay [10], > 45 µM (inactive); in [11] it was > 45 µM (inactive); in [12], > 45 µM (inactive). The GI50 is > 45 µM (inactive) in assay [13]; > 45 µM (inactive) in assay [14]; 1.72 µM (inactive) in [15]; > 45 µM (inactive) in assay [16]; > 45 µM (inactive) in assay [17]; > 45 µM (inactive) in assay [18]. The GI50 in assay [19] is > 45 µM (inactive).
